Laboratory results: ChEMBL document CHEMBL1759888, “Biological evaluation of polyhalo 1,3-diazaheterocycle fused isoquinolin-1(2H)-imine derivatives” (Eur J Med Chem, 2011)
Values after ≈ are worked out from the molar mass of the structure shown.

Experiments:
[1] = Lipophilicity, log P of the compound; assay type: physicochemical; settings: octanol/water
[2] = system: A-431; assay: Anticancer activity against human A431 cells after 72 hrs by MTT assay; settings: A-431, 72 h
[3] = system: HL-60; assay: Anticancer activity against human HL60 cells after 48 hrs by MTT assay; settings: HL-60, 48 h
[4] = system: K562; assay: Anticancer activity against human K562 cells after 48 hrs by MTT assay; settings: K562, 48 h
[5] = system: HepG2; assay: Anticancer activity against human HepG2 cells after 72 hrs by MTT assay; settings: HepG2, 72 h
[6] = system: SK-OV-3; assay: Anticancer activity against human SKOV3 cells after 72 hrs by MTT assay; settings: SK-OV-3, 72 h

SMILES	logP [1]	IC50 [2] [µg/mL]	IC50 [3] [µg/mL]	IC50 [4] [µg/mL]	IC50 [5] [µg/mL]	IC50 [6] [µg/mL]
N#Cc1c(F)c(Cl)c2c(C(=O)c3ccccc3)c3n(c(=N)c2c1F)CCN3	3.27	4.8 (≈ 12.5 µM)	0.1 (≈ 0.26 µM)	0.4 (≈ 1.04 µM)	0.3 (≈ 0.78 µM)	5.8 (≈ 15.1 µM)
CC(=O)c1c2n(c(=N)c3c(Cl)c(C#N)c(Cl)c(Cl)c13)CCN2	2.43	308 (≈ 866 µM)	4.7 (≈ 13.2 µM)	3.6 (≈ 10.1 µM)	503 (≈ 1410 µM)	78.4 (≈ 220 µM)
CC(=O)c1c2n(c(=N)c3c(F)c(C#N)c(F)c(Cl)c13)CCN2	1.67	20.4 (≈ 63.2 µM)	0.9 (≈ 2.79 µM)	0.4 (≈ 1.24 µM)	6.4 (≈ 19.8 µM)	6.2 (≈ 19.2 µM)
N#Cc1c(F)c(Cl)c2c(C(=O)c3ccc(Cl)cc3)c3n(c(=N)c2c1F)CCN3	4	5 (≈ 11.9 µM)	0.3 (≈ 0.716 µM)	1.4 (≈ 3.34 µM)	12.4 (≈ 29.6 µM)	34.9 (≈ 83.3 µM)
CCOC(=O)c1c2n(c(=N)c3c(Cl)c(C#N)c(Cl)c(Cl)c13)CCN2	3.44	40.6 (≈ 105 µM)	1.7 (≈ 4.41 µM)	1.6 (≈ 4.15 µM)	38.2 (≈ 99.1 µM)	50.1 (≈ 130 µM)
N#Cc1c(F)c(F)c2c(C(=O)c3ccccc3)c3n(c(=N)c2c1F)CCN3	2.63	0.8 (≈ 2.17 µM)	0.001 (≈ 0.00272 µM)	0.08 (≈ 0.217 µM)	1.2 (≈ 3.26 µM)	0.2 (≈ 0.543 µM)
CCOC(=O)c1c2n(c(=N)c3c(F)c(C#N)c(F)c(Cl)c13)CCN2	2.68	2.2 (≈ 6.24 µM)	0.003 (≈ 0.00851 µM)	0.0008 (≈ 0.00227 µM)	1.5 (≈ 4.25 µM)	0.05 (≈ 0.142 µM)
COc1ccc(C(=O)c2c3n(c(=N)c4c(F)c(C#N)c(F)c(F)c24)CCN3)cc1	2.62	7.5 (≈ 18.8 µM)	0.5 (≈ 1.26 µM)	0.4 (≈ 1 µM)	0.9 (≈ 2.26 µM)	
N#Cc1c(F)c(F)c2c(C(=O)c3ccc(Cl)cc3)c3n(c(=N)c2c1F)CCCN3	3.44	4.3 (≈ 10.3 µM)	4.7 (≈ 11.3 µM)	0.5 (≈ 1.2 µM)	8.4 (≈ 20.2 µM)	15.1 (≈ 36.2 µM)
N#Cc1c(F)c(F)c2c(C(=O)c3ccccc3)c3n(c(=N)c2c1F)CCCN3	2.71	2.4 (≈ 6.28 µM)	0.3 (≈ 0.785 µM)	0.02 (≈ 0.0523 µM)	1.1 (≈ 2.88 µM)	16.4 (≈ 42.9 µM)
CC(=O)c1c2n(c(=N)c3c(F)c(C#N)c(F)c(F)c13)CCN2	1.03	4.4 (≈ 14.4 µM)	0.02 (≈ 0.0653 µM)	0.1 (≈ 0.327 µM)	3.1 (≈ 10.1 µM)	0.02 (≈ 0.0653 µM)

Second part, the compound after the results:

logP [1]	IC50 [2] [µg/mL]	IC50 [3] [µg/mL]	IC50 [4] [µg/mL]	IC50 [5] [µg/mL]	IC50 [6] [µg/mL]	SMILES
3.21	2.3 (≈ 5.96 µM)	1.5 (≈ 3.89 µM)	1.7 (≈ 4.41 µM)	3.6 (≈ 9.33 µM)	29.2 (≈ 75.7 µM)	N#Cc1c(F)c(Cl)c2c(C(=O)c3ccccc3)c3n(c(=N)c2c1F)CCO3
3.39	11 (≈ 24.5 µM)	24.2 (≈ 53.9 µM)	0.8 (≈ 1.78 µM)	2.7 (≈ 6.02 µM)	32.2 (≈ 71.8 µM)	COc1ccc(C(=O)c2c3n(c(=N)c4c(Cl)c(C#N)c(Cl)c(Cl)c24)CCO3)cc1
4.84	8 (≈ 17.2 µM)	4.4 (≈ 9.44 µM)	1.2 (≈ 2.57 µM)	30 (≈ 64.4 µM)	52.2 (≈ 112 µM)	N#Cc1c(Cl)c(Cl)c2c(C(=O)c3ccc(Cl)cc3)c3n(c(=N)c2c1Cl)CCCN3
3.26	1.9 (≈ 4.58 µM)	0.2 (≈ 0.482 µM)	0.3 (≈ 0.723 µM)	1.2 (≈ 2.89 µM)		COc1ccc(C(=O)c2c3n(c(=N)c4c(F)c(C#N)c(F)c(Cl)c24)CCN3)cc1
3.34	2 (≈ 4.66 µM)	0.5 (≈ 1.17 µM)	0.07 (≈ 0.163 µM)	0.8 (≈ 1.87 µM)	26.8 (≈ 62.5 µM)	COc1ccc(C(=O)c2c3n(c(=N)c4c(F)c(C#N)c(F)c(Cl)c24)CCCN3)cc1
2.57	1.5 (≈ 3.76 µM)	0.1 (≈ 0.25 µM)	1.8 (≈ 4.51 µM)	0.5 (≈ 1.25 µM)	0.2 (≈ 0.501 µM)	COc1ccc(C(=O)c2c3n(c(=N)c4c(F)c(C#N)c(F)c(F)c24)CCO3)cc1
